Legend:
Details in all cases: 72 h
[1] = tested on: HepG2; experiment: drug sensitivity score (DSS) for viability; higher = more toxic; extreme values may be limits of the assay
[2] = tested on: Caco-2; experiment: as above
[3] = tested on: U2OS; experiment: as above
[4] = tested on: Calu-3; experiment: as above
[5] = tested on: Vero E6; experiment: as above
[6] = tested on: HepG2; experiment: cell viability relative to DMSO; higher = less toxic
[7] = tested on: Caco-2; experiment: as above
[8] = tested on: U2OS; experiment: as above
[9] = tested on: Calu-3; experiment: as above
[10] = tested on: Vero E6; experiment: as above
[11] = tested on: HepG2; experiment: relative viability EC50 (midpoint between 100% and the lowest measured viability); higher = less toxic
[12] = tested on: Caco-2; experiment: as above
[13] = tested on: U2OS; experiment: as above
[14] = tested on: Calu-3; experiment: as above
[15] = tested on: Vero E6; experiment: as above

| SMILES | drug sensitivity score [1] | drug sensitivity score [2] | drug sensitivity score [3] | drug sensitivity score [4] | drug sensitivity score [5] | cell viability ([6]; 1 nM) [%] | cell viability ([6]; 10 nM) [%] | cell viability ([6]; 100 nM) [%] | cell viability ([6]; 1000 nM) [%] | cell viability ([6]; 10000 nM) [%] | cell viability ([7]; 1 nM) [%] | cell viability ([7]; 10 nM) [%] | cell viability ([7]; 100 nM) [%] | cell viability ([7]; 1000 nM) [%] | cell viability ([7]; 10000 nM) [%] | cell viability ([8]; 1 nM) [%] | cell viability ([8]; 10 nM) [%] | cell viability ([8]; 100 nM) [%] | cell viability ([8]; 1000 nM) [%] | cell viability ([8]; 10000 nM) [%] | cell viability ([9]; 1 nM) [%] | cell viability ([9]; 10 nM) [%] | cell viability ([9]; 100 nM) [%] | cell viability ([9]; 1000 nM) [%] | cell viability ([9]; 10000 nM) [%] | cell viability ([10]; 1 nM) [%] | cell viability ([10]; 10 nM) [%] | cell viability ([10]; 100 nM) [%] | cell viability ([10]; 1000 nM) [%] | cell viability ([10]; 10000 nM) [%] | relative viability EC50 [11] [µM] | relative viability EC50 [12] [µM] | relative viability EC50 [13] [µM] | relative viability EC50 [14] [µM] | relative viability EC50 [15] [µM] |
| --- | --- | --- | --- | --- | --- | --- | --- | --- | --- | --- | --- | --- | --- | --- | --- | --- | --- | --- | --- | --- | --- | --- | --- | --- | --- | --- | --- | --- | --- | --- | --- | --- | --- | --- | --- |
| Cc1c(F)cccc1NC(=O)Nc1ccc(Cl)c(S(=O)(=O)[C@H]2CCCNC2)c1O [danirixin] | 0 | 0 | 0 | 0 | 0 | 94.8 | 93.1 | 103 | 94.7 | 106 | 99.3 | 104 | 93.4 | 99.4 | 95.9 | 99 | 104 | 95.4 | 98.8 | 98.8 | 84.6 | 88.3 | 91.8 | 93.1 | 95.6 | 106 | 106 | 106 | 98.2 | 100 | > 10 | > 10 | > 10 | > 10 | > 10 |
| COc1cc(OC)nc(O[C@H](C(=O)O)C(OC)(c2ccccc2)c2ccccc2)n1 [darusentan] | 0 | 0 | 0 | 0 | 0 | 98.2 | 98.8 | 93.6 | 95.5 | 91.3 | 102 | 96.9 | 97.3 | 95.1 | 102 | 97.1 | 102 | 91 | 96.9 | 94.6 | 111 | 93.3 | 99.1 | 101 | 101 | 96.5 | 98.8 | 97.2 | 92.3 | 98.6 | > 10 | > 10 | > 10 | > 10 | > 10 |
| Cc1c(C(N)=O)cc([N+](=O)[O-])cc1[N+](=O)[O-] [dinitolmide] | 0 | 0 | 0 | 0 | 0 | 104 | 104 | 106 | 99.7 | 102 | 101 | 97.6 | 102 | 95.1 | 105 | 111 | 105 | 105 | 93.5 | 92.3 | 99.4 | 105 | 101 | 100 | 103 | 102 | 101 | 98.8 | 98.3 | 97.4 | > 10 | > 10 | > 10 | > 10 | > 10 |
| Cn1c(=O)c2c(ncn2CC(O)CO)n(C)c1=O (stereo not given) [dyphylline] | 0 | 0 | 0 | 0 | 0 | 102 | 106 | 97.1 | 107 | 104 | 104 | 110 | 104 | 98.9 | 107 | 107 | 108 | 105 | 98.8 | 110 | 92.7 | 99.6 | 109 | 96.4 | 101 | 100 | 102 | 105 | 98.7 | 105 | > 10 | > 10 | > 10 | > 10 | > 10 |
| COC(=O)CCc1ccc(OCC(O)CNC(C)C)cc1 (stereo not given) [esmolol] | 0 | 0 | 0 | 0 | 0 | 110 | 102 | 94.5 | 109 | 96.5 | 102 | 84.8 | 98.5 | 95.5 | 97.8 | 101 | 95 | 94.6 | 94.1 | 99 | 111 | 99.8 | 96.9 | 105 | 102 | 97.2 | 93.1 | 95.5 | 100 | 95.5 | > 10 | > 10 | > 10 | > 10 | > 10 |
| CC(Cc1ccc(O)cc1)NCC(O)c1cc(O)cc(O)c1 (stereo not given) [fenoterol] | 0 | 0 | 0 | 0 | 0 | 84.4 | 92.7 | 94 | 93.8 | 82.9 | 124 | 99.3 | 103 | 92.4 | 111 | 101 | 95.1 | 96.4 | 98.5 | 98.4 | 103 | 114 | 105 | 95.9 | 103 | 97.6 | 108 | 96.7 | 103 | 92.1 | > 10 | > 10 | > 10 | > 10 | > 10 |
| CC(C)C(=O)Oc1ccc(CO)cc1[C@H](CCN(C(C)C)C(C)C)c1ccccc1 [fesoterodine] | 3 | 0 | 0 | 0 | 0 | 101 | 104 | 83.7 | 90.9 | 90.7 | 91.6 | 99.1 | 103 | 98.8 | 96.5 | 105 | 95.8 | 98.2 | 99.8 | 100 | 102 | 97.3 | 90.2 | 100 | 104 | 100 | 99.9 | 99.2 | 104 | 92.6 | > 10 | > 10 | > 10 | > 10 | > 10 |
| O=C(NCC1CCCCN1)c1cc(OCC(F)(F)F)ccc1OCC(F)(F)F (stereo not given) [flecainide] | 0 | 0 | 0 | 0 | 0 | 96.5 | 103 | 93.3 | 94.9 | 106 | 94.1 | 89.9 | 94.5 | 86 | 104 | 98.8 | 97.2 | 103 | 100 | 97.6 | 108 | 100 | 97.5 | 101 | 101 | 90 | 99.6 | 90.1 | 93.8 | 99.1 | > 10 | > 10 | > 10 | > 10 | > 10 |
| CNC(=O)c1c(C)oc2cc(Oc3ncnc4cc(OC)c(OC)cc34)ccc12 [fruquintinib] | 0 | 0 | 0 | 0 | 0 | 107 | 109 | 100 | 86.5 | 103 | 90 | 97.4 | 97.8 | 98.9 | 94.7 | 102 | 104 | 102 | 102 | 90.8 | 103 | 103 | 98.7 | 107 | 98.8 | 96.1 | 93.4 | 102 | 94.5 | 91.6 | > 10 | > 10 | > 10 | > 10 | > 10 |
| COc1cc2c(=O)c(-c3ccc(O)cc3)coc2cc1O [glycitein] | 0 | 0 | 0 | 0 | 0 | 105 | 103 | 99.2 | 111 | 92.9 | 86.4 | 97.3 | 101 | 96 | 94.2 | 98.1 | 99.3 | 102 | 98.2 | 99.5 | 92.9 | 99.6 | 101 | 101 | 96.7 | 102 | 103 | 98.2 | 99.6 | 94.4 | > 10 | > 10 | > 10 | > 10 | > 10 |
| CC(C)C[C@@H](NC(=O)[C@H](C)NC(=O)CNC(=O)[C@@H](NC=O)C(C)C)C(=O)N[C@@H](C)C(=O)N[C@@H](C(=O)N[C@H](C(=O)N[C@@H](C(=O)N[C@@H](Cc1c[nH]c2ccccc12)C(=O)N[C@H](CC(C)C)C(=O)N[C@@H](Cc1c[nH]c2ccccc12)C(=O)N[C@H](CC(C)C)C(=O)N[C@@H](Cc1c[nH]c2ccccc12)C(=O)N[C@H](CC(C)C)C(=O)N[C@@H](Cc1c[nH]c2ccccc12)C(=O)NCCO)C(C)C)C(C)C)C(C)C [gramicidin] | 0 | 0 | 12.3 | 3.7 | 0 | 101 | 100 | 26.4 | 114 | 121 | 90 | 118 | 54.6 | 106 | 90.7 | 97.5 | 94.3 | 32.4 | 97.4 | 20.3 | 109 | 94.2 | 87.9 | 95.7 | 42.9 | 99.2 | 94.3 | 94 | 92.5 | 98.3 | > 10 | > 10 | 0.466 | 2.55 | > 10 |
| N=C(N)NCCN1CCCCCCC1 [guanethidine] | 0 | 0 | 0 | 0 | 0 | 99.3 | 102 | 96.4 | 106 | 93.6 | 92.3 | 96.6 | 91 | 91.8 | 101 | 102 | 96.6 | 99.7 | 98.8 | 103 | 104 | 102 | 99.6 | 95 | 97.3 | 105 | 97.2 | 95.2 | 109 | 101 | > 10 | > 10 | > 10 | > 10 | > 10 |
| N=C(N)NCCSSCCNC(=N)N [guanidinoethyldisulfide-bicarbonate] | 0 | 0 | 0 | 0 | 0 | 93 | 101 | 96.4 | 97.9 | 93 | 101 | 87.2 | 93.6 | 101 | 91.8 | 106 | 96.8 | 100 | 96.8 | 102 | 99.7 | 106 | 99.9 | 98.6 | 108 | 97.5 | 96.3 | 102 | 96.2 | 91.4 | > 10 | > 10 | > 10 | > 10 | > 10 |
| CC1(C)O[C@@H]2C[C@H]3[C@@H]4CCC5=CC(=O)CC[C@]5(C)[C@@]4(F)[C@@H](O)C[C@]3(C)[C@]2(C(=O)CCl)O1 [halcinonide] | 0 | 0 | 0.1 | 0 | 0 | 104 | 98 | 97.7 | 95.8 | 96 | 106 | 99.4 | 106 | 99 | 104 | 102 | 103 | 96.7 | 89.6 | 97.6 | 106 | 98.3 | 96.6 | 100 | 102 | 101 | 103 | 97.4 | 98.4 | 98.1 | > 10 | > 10 | > 10 | > 10 | > 10 |

Source: the supplement of paper PMC13380429
